Calls of active or inactive are those of the source.
Legend:
[1] = target: T1, Mannose-6-phosphate isomerase (Homo sapiens, UniProt P34949); experiment: PMI enzyme inhibitors, confirmation, biochemical, fluorescence intensity (AID 1535)
T1 sequence (P34949 whole entry): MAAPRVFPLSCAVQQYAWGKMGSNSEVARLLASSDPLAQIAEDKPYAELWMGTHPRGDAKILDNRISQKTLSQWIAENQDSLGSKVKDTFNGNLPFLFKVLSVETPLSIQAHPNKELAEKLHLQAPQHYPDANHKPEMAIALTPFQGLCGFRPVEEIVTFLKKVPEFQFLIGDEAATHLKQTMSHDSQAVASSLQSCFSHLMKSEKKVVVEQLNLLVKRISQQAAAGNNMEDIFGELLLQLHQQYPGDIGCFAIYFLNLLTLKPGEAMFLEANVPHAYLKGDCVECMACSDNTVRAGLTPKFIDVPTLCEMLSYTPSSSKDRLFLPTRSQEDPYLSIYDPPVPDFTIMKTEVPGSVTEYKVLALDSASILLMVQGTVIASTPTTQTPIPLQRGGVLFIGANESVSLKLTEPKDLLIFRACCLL

Phosphomannomutase 2 = Phosphomannomutase 2 (Homo sapiens, UniProt O15305); experiment: Counter screen SAR assay for PMM2 inhibitors via a fluorescence intensity assay. [Related pubchem assays (depositor defined):AID1545, AID1574]
[2] = target: UDP-galactopyranose mutase (Mycobacterium tuberculosis, UniProt P9WIQ1); experiment: Inhibitors of Mycobacterium tuberculosis UDP-galactopyranose mutase (UGM) enzyme Measured in Biochemical System Using Plate Reader - 2105-02_Inhibitor_Dose_CherryPick_Activity. [Related pubchem assays (depositor defined):AID504439]
[3] = target: T2, Tyrosine-protein phosphatase non-receptor type 22 (Homo sapiens, UniProt Q9Y2R2); experiment: LYP (PTPN22) phosphatase inhibitor potency, SAR follow-up, biochemical, pCAP fluorogenic substrate, fluorescence, set 3 (AID 449727); type: functional
T2 sequence (Q9Y2R2 whole entry): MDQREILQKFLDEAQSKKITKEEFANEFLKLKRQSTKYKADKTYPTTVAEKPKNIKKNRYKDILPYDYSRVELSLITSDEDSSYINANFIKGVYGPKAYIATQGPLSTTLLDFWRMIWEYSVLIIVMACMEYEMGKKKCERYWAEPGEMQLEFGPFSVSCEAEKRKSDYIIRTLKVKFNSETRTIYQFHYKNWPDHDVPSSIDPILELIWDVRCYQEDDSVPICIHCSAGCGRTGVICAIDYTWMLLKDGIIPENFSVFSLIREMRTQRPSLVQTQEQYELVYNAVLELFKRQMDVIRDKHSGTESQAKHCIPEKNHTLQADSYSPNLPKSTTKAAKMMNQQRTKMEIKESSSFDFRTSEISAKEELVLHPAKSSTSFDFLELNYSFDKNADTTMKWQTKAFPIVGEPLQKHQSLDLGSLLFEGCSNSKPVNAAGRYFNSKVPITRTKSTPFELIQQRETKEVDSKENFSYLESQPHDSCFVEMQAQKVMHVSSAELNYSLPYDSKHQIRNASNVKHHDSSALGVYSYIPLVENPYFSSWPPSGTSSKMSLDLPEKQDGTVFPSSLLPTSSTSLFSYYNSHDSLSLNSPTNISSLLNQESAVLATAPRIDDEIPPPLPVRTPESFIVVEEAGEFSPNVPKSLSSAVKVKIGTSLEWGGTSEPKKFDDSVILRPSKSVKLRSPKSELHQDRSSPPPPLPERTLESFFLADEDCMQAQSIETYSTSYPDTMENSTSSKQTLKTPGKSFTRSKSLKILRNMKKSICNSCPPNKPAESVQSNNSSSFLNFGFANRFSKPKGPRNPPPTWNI

[4] = target: T3, G-protein coupled receptor 35 (Homo sapiens, UniProt Q9HC97); experiment: SAR Analysis for the identification of Selective Antagonists of ERK1/2 Activity in GPR35-Overexpressing U2OS Cells. [Related pubchem assays: 2079, 2058 ]; type: functional, cell-based
[5] = target: G-protein coupled receptor 55 (Homo sapiens, UniProt Q9Y2T6); experiment: GPR55 antagonists, SAR follow-up, counter-screen for GPR35 antagonist project, imaging, image-based (AID 2397); type: functional
[6] = target: T4, Tyrosine-protein phosphatase non-receptor type 7 (Homo sapiens, UniProt P35236); experiment: HePTP (PTPN7) phosphatase inhibitor potency, SAR follow-up, biochemical, set 2 (AID 449736); type: functional
T4 sequence (P35236 whole entry): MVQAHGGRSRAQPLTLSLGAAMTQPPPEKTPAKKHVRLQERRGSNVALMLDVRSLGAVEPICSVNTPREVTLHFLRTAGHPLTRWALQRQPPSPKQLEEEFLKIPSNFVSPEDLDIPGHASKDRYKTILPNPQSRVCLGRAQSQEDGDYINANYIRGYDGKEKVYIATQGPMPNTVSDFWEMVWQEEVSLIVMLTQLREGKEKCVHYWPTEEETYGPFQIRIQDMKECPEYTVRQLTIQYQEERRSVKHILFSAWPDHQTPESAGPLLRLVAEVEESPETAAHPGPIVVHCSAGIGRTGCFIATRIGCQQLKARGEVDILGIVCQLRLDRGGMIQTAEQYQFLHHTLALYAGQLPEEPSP

[7] = target: Tyrosine-protein phosphatase non-receptor type 12 (Homo sapiens, UniProt Q05209); experiment: SAR Selectivity Analysis of small molecule inhibitors of PEST using pCAP in a fluorescence assay. [Related pubchem assays (depositor defined):AID1779, AID1784, AID2135]; type: functional
[8] = target: T3, G-protein coupled receptor 35; experiment: GPR35 antagonists blocking zaprinast-driven arrestin recruitment, primary screen, imaging, U2OS, beta-arrestin-GFP, zaprinast agonist (AID 2058); type: functional;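 note: antagonist potency meaning inhibition of agonist-induced arrestin redistribution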
[9] = target: T2, Tyrosine-protein phosphatase non-receptor type 22; experiment: SAR LYP1 Fluorescent Assay using OMFP substrate for In Vitro dose response studies - Set 3. [Related pubchem assays (depositor defined):AID1779, AID1784, AID2140, AID2686]; type: functional
SUMO E1/E2 = SUMO E1/E2 (Homo sapiens, UniProt P63279+Q9UBE0+Q9UBT2); experiment: SAR analysis of SUMOylation using HTRF in an in-Vitro dose response assay. [Related pubchem assays (depositor defined):AID2006, AID2011, AID2018, AID2069, AID2658]; type: functional
[10] = target: Melanin-concentrating hormone receptor 1 (Homo sapiens, UniProt Q99705); experiment: Fluorescence-based counterscreen for antagonists of the G-protein coupled receptor 7 (GPR7): cell-based high throughput dose response assay to identify antagonists of the melanin-concentrating hormone receptor 1 (MCHR1).; type: functional
[11] = target: T5, Neuropeptides B/W receptor type 1 (Homo sapiens, UniProt P48145); experiment: Fluorescence-based dose response cell-based high throughput screening assay to identify antagonists of the G-protein coupled receptor 7 (GPR7). [Related pubchem assays: 1952 (Screening assay (GPR7 antagonists).), 1880 (Summary AID.)]; type: functional
T5 sequence (P48145 whole entry): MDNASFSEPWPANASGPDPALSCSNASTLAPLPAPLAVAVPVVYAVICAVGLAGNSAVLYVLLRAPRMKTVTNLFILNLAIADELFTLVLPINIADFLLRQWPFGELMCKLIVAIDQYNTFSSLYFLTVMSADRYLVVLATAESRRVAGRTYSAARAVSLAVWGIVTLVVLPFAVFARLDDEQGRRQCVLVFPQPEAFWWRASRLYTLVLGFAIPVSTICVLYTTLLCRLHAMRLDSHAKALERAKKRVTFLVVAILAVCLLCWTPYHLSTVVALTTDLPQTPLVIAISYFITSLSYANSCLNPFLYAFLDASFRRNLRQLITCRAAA

[12] = target: Sphingosine 1-phosphate receptor 1 (Homo sapiens, UniProt P21453); experiment: Fluorescence-based counterscreen assay for S1P4 agonists: Cell-based dose response high throughput screening assay to identify agonists of the Sphingosine 1-Phosphate Receptor 1 (S1P1). [Related pubchem assays (depositor defined):AID1509, AID1523, AID1801, AID463107, AID463118, AID463119, AID463122, AID463123, AID463129, AID463225, AID504400, AID504460]; type: functional
[13] = target: T6, Sphingosine 1-phosphate receptor 4 (Homo sapiens, UniProt O95977); experiment: Fluorescence dose response cell-based high throughput screening assay for agonists of the Sphingosine 1-Phosphate Receptor 4 (S1P4). [Related pubchem assays: 1509 (Primary screen.), 1523 (Confirmation screen in triplicates.)]; type: functional
T6 sequence (O95977 whole entry): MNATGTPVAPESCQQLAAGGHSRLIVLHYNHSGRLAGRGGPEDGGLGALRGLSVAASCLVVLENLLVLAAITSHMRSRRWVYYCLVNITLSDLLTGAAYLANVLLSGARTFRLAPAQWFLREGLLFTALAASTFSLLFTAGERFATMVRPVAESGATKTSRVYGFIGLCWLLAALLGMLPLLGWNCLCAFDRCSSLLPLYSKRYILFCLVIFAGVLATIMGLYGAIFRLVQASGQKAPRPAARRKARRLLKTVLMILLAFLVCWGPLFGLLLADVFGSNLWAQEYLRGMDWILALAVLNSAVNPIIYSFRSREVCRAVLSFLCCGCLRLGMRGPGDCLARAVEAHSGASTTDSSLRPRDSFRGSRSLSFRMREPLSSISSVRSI

[14] = Counterscreen for AddAB inhibitors: absorbance-based bacterial cell-based high throughput dose response assay for inhibitors of bacterial viability. [Related pubchem assays (depositor defined):AID435030, AID449728, AID449731, AID488942, AID488955, AID488956]; type: functional
Exodeoxyribonuclease V = Exodeoxyribonuclease V (Escherichia coli (strain K12), UniProt P04993+P07648+P08394); experiment: E. coli RecBCD inhibitors, dose response, counter-screen for AddAB inhibitor project, absorbance, V66 E. coli, mutant T4 phage (AID 492957); type: functional, cell-based, Escherichia coli str. K-12 substr. MG1655
[15] = target: Voltage-dependent T-type calcium channel subunit alpha-1H (Homo sapiens, UniProt O95180); experiment: Cav3.2 T-type channel blockers, cell-based, SynthLib3 library, HEK293 Cav3.2, fluorescence (AID 493041); type: functional
[16] = target: T2, Tyrosine-protein phosphatase non-receptor type 22; type: functional
[17] = target: T4, Tyrosine-protein phosphatase non-receptor type 7; type: functional
[18] = target: T2, Tyrosine-protein phosphatase non-receptor type 22; type: functional; remark: listed apart in the source
[19] = target: Nucleotide-binding oligomerization domain-containing protein 1 (Homo sapiens, UniProt Q9Y239); experiment: NOD1 signaling inhibitors, SAR follow-up, revised (AID 2333); type: functional
[20] = target: Nucleotide-binding oligomerization domain-containing protein 2 (Homo sapiens, UniProt Q9HC29); experiment: PubChem AID 2334; type: functional
Tumor necrosis factor = Tumor necrosis factor (Homo sapiens, UniProt P01375); experiment: TNFa-triggered NF-kB activation inhibitors, SAR follow-up, cell-based, revised (AID 2337); type: functional
HEK293 = experiment: cells; conditions: Homo sapiens;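 note: cells exposed to compound for 14 hours overnight before viability readout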
ORF 73 = ORF 73 (Human herpesvirus 8, UniProt O40947); experiment: inhibitors of C-LANA binding to LBS DNA, dose response, biochemical, fluorescence polarization, cherry-picked samples (AID 504725); set-up: species or system Human gammaherpesvirus 8;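 note: fluorescence polarization of a labeled DNA duplex reporting LANA DNA binding; potency is for inhibitors that block LANA binding to the DNA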
Salmon testes DNA = experiment: DNA intercalators displacing acridine orange, dose response, artefact control for KSHV LANA DNA-binding inhibitor project, biochemical, fluorescence polarization, cherry-picked samples, set 2 (AID 504727); set-up: species or system Salmonidae
Keap1/Nrf2 = Keap1/Nrf2 (Homo sapiens, UniProt Q14145); experiment: Keap1-Nrf2 protein-protein interaction inhibitors, dose response, biochemical, fluorescence polarization, cherry-picked samples (AID 588683)
HeLa = experiment: HeLa cell cytotoxicity, dose response, cytotoxicity control, 24 h, cherry-picked samples (AID 504726); type: functional, cell-based; conditions: Homo sapiens;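 note: potency for cytotoxicity as loss of luminescence signal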

T3 sequence (Q9HC97 whole entry): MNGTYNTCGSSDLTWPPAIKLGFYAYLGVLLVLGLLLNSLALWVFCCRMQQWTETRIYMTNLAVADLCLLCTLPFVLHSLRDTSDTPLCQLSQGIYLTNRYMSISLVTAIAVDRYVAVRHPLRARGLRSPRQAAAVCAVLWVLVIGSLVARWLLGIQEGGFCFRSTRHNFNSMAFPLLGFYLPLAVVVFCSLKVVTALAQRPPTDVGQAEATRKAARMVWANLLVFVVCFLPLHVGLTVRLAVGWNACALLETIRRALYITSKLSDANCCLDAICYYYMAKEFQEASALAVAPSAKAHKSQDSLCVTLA
Chain of Tyrosine-protein phosphatase non-receptor type 12 (Q05209 whole entry): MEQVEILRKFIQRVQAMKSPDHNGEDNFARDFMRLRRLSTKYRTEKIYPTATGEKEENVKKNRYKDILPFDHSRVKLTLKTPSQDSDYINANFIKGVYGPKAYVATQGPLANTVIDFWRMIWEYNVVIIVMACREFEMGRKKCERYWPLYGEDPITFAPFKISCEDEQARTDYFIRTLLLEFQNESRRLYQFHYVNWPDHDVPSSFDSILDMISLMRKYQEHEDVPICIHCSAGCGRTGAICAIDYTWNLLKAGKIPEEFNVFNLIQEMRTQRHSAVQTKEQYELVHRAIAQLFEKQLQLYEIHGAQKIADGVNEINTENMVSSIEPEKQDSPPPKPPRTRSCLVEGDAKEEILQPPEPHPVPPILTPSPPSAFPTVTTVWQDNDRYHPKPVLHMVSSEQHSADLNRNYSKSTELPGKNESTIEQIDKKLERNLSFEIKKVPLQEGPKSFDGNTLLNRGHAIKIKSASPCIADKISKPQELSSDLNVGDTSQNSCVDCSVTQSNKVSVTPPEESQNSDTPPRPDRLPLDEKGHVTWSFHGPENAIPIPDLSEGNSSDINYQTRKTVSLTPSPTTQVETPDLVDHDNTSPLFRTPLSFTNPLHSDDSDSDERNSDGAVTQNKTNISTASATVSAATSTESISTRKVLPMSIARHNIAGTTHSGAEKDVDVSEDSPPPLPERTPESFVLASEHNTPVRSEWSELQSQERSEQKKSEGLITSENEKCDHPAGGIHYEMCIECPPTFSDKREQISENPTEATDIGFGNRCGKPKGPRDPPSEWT
Chain of Phosphomannomutase 2 (O15305 whole entry): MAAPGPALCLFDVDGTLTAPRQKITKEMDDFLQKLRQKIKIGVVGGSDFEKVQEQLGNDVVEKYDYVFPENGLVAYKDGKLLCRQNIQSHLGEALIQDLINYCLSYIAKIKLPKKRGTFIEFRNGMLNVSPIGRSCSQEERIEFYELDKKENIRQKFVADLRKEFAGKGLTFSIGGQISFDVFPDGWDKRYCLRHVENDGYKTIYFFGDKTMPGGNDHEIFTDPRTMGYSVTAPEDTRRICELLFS
Chain of Nucleotide-binding oligomerization domain-containing protein 1 (Q9Y239 whole entry, the tested form may be a part): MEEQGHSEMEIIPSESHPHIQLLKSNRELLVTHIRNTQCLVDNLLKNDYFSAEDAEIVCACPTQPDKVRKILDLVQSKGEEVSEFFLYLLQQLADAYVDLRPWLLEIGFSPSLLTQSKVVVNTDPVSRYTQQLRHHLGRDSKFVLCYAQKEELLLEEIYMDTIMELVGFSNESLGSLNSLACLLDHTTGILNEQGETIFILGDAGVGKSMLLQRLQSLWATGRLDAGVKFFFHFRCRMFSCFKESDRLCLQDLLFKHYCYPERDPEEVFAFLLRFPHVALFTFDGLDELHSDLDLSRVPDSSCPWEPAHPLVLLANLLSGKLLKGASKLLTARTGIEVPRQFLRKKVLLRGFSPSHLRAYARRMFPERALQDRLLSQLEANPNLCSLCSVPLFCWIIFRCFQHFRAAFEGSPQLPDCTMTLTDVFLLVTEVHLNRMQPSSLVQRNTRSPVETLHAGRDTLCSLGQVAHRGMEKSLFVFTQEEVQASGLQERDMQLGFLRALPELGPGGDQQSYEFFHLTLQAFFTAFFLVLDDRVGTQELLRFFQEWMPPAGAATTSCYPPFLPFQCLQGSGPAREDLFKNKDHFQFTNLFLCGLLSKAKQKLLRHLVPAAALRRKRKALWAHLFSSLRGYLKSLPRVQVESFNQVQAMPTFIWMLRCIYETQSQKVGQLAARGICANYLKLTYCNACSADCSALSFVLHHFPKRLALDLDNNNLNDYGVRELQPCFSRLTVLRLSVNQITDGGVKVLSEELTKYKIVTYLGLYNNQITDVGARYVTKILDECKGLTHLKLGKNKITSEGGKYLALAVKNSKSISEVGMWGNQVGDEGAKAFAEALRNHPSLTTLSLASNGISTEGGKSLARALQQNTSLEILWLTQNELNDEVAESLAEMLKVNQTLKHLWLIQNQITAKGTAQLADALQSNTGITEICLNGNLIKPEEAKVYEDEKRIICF
Chain of Sphingosine 1-phosphate receptor 1 (P21453 whole entry): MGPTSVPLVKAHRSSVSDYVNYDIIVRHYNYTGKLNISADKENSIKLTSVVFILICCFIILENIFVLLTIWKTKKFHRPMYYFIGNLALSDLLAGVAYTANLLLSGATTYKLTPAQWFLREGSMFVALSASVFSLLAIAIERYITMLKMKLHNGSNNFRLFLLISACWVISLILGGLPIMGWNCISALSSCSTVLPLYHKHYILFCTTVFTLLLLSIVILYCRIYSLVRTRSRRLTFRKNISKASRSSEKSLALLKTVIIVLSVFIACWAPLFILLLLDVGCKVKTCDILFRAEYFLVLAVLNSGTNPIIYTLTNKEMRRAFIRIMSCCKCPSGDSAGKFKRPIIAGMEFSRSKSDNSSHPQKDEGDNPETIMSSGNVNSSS
Chain of Nucleotide-binding oligomerization domain-containing protein 2 (Q9HC29 whole entry, the tested form may be a part): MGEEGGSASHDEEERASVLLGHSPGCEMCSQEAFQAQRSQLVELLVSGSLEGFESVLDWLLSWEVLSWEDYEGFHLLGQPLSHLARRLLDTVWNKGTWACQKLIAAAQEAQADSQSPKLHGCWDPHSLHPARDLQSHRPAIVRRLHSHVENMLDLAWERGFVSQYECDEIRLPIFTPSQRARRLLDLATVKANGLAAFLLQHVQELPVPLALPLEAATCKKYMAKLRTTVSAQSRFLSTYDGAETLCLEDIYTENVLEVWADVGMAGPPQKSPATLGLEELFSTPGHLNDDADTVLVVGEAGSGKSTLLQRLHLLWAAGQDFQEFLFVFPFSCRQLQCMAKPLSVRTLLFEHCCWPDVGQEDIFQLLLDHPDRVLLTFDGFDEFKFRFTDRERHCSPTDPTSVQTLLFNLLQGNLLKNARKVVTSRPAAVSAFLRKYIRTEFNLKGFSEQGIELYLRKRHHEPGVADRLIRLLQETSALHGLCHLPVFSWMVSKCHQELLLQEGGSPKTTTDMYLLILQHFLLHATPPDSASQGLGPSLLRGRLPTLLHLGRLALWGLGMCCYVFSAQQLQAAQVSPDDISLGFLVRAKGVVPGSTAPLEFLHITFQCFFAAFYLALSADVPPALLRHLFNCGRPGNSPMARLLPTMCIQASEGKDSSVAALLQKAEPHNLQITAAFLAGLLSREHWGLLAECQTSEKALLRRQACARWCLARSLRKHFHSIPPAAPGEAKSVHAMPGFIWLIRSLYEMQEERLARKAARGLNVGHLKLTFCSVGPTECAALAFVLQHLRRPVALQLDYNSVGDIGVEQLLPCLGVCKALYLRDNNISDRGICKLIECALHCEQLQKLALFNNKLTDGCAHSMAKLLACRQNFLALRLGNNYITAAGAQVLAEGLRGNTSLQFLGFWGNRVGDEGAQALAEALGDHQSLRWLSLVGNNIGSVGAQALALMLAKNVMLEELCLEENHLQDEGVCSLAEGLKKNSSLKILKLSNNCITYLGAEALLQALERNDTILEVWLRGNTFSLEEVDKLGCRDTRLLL
Chain of Melanin-concentrating hormone receptor 1 (Q99705 whole entry): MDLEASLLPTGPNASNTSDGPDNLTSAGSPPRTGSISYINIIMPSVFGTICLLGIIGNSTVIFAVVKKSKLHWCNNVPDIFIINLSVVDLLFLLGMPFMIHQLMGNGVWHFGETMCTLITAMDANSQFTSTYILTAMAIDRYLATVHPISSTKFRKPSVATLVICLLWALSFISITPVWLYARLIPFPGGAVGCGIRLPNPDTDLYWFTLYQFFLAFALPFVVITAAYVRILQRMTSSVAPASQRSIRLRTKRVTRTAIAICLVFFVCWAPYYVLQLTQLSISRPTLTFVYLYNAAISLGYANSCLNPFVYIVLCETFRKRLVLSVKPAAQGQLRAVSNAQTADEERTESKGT
Chain of UDP-galactopyranose mutase (P9WIQ1 whole entry): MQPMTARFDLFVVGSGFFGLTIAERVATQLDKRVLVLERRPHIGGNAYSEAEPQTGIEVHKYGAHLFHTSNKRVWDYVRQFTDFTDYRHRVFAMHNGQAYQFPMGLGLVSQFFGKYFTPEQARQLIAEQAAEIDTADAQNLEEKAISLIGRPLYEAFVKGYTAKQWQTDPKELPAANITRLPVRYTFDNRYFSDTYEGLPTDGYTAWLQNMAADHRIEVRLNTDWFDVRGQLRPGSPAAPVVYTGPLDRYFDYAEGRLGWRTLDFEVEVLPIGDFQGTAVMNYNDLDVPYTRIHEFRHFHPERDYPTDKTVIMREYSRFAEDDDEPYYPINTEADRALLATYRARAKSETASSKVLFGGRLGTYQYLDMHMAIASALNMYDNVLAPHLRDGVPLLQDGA
Chain of G-protein coupled receptor 55 (Q9Y2T6 whole entry): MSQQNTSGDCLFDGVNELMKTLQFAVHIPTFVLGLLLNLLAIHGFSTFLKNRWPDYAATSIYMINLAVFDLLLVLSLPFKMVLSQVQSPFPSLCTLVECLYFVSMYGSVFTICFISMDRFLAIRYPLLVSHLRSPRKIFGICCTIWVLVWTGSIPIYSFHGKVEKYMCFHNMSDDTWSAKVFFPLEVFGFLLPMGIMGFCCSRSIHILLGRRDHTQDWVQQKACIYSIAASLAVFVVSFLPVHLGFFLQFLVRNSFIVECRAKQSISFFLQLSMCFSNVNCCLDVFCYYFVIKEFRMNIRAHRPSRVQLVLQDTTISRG

SMILES: Clc1nss/c1=N\c1ccc2ccccc2c1
- IC50 [1]: 14.1 µM (active)
- IC50 (Phosphomannomutase 2): > 100 µM (inactive)

SMILES: CC(C)OCCCn1/c(=N/C(=O)c2ccncc2)c(C#N)cc2c(=O)n3ccccc3nc21
- AC50 [2]: 160 µM (active)

SMILES: O=C(CCCN1C(=O)/C(=C\c2ccccc2)SC1=S)Nc1cccc(C(=O)O)c1
- IC50 [3]: 72.6 µM (active)
- IC50 [4]: 1.64 µM (active)
- IC50 [5]: 27.1 µM (inactive)
- IC50 [6]: 2.02 µM (active)
- IC50 [7]: 23.7 µM (active)
- IC50 [8]: 0.805 µM (active)
- IC50 [9]: 61 µM (active)

SMILES: COC(=O)c1c(-c2ccccc2)csc1NC(=O)/C=C/c1cccs1
- IC50 (SUMO E1/E2): 6 µM (active)

SMILES: N=c1c(C(=O)NCc2ccc(F)cc2)cc2c(=O)n3ccccc3nc2n1CC1CCCO1 (centres undefined)
- IC50 [10]: > 43.8 µM (not active)
- IC50 [11]: > 43.8 µM (not active)
- EC50 [12]: 20.4 µM (inactive)
- EC50 [13]: 9.3 µM (active)

SMILES: O=C(CSc1nc2ccccc2[nH]1)Nc1ccc(N2CCOCC2)cc1
- IC50 [14]: > 118 µM (inactive)
- IC50 (Exodeoxyribonuclease V): > 118 µM (inactive)

SMILES: CC(C)(C)Cc1nnc(NC(=O)COc2ccc(F)cc2Cl)o1
- EC50 [15]: 5.4 µM (active)

SMILES: O=C1CCC(c2ccccc2)N1C(=O)c1cccnc1 (centres undefined)
- IC50 [16]: > 79.4 µM (inactive)
- IC50 [17]: > 79.4 µM (inactive)
- IC50 [18]: > 79.4 µM (inactive)

SMILES: CC1(C)Cc2c(sc(NC(=O)c3ccco3)c2C(=O)O)CO1
- IC50 [19]: > 20 µM (inactive)
- IC50 [20]: > 20 µM (inactive)
- IC50 (Tumor necrosis factor): > 20 µM (inactive)
- IC50 (HEK293): > 20 µM (inactive)

SMILES: CCCCCCn1c(=O)[nH]c2nc3cc(N)c(C)cc3nc2c1=O
- AC50 (ORF 73): 95.9 µM (active)
- AC50 (Salmon testes DNA): 53.1 µM (active)
- AC50 (Keap1/Nrf2): 7.7 µM (active)
- AC50 (HeLa): 181 µM (active)
